# Measured values taken from US10874669B2 (WAYNE STATE UNIVERSITY, priority 2018, dated 2020).
# “Also recorded” adds a separate entry of the source. Like-named read-outs stand apart in the source and are kept apart here.
# Key:
# [1] = system: reserpine-induced hypolocomotion in rats; experiment: Reversal of reserpine-induced hypolocomotion in rats; settings: 10 μMol/kg, ip; for duration of locomotor activation: locomotion monitored for 6 h; for reversal of reserpine-induced akinesia / hypolocomotion (horizontal activity): reserpine 5 mg/kg sc, 18 h pretreatment, rats
# Procedure: In this model depletion of catecholamines by reserpine results in catalepsy in rats.
# The following commercially available drug was used in the experiment: reserpine hydrochloride (Alfa Aesar). […] The compounds for this study were administered in a volume of 0.1-0.2 mL for subcutaneous administration and 0.5-0.7 ml for interaperitoneal administration into each rat.
# In rodent studies, animals were male and female Sprague-Dawley rats from Harlan (Indianapolis, Ind.) weighing 220-225 g unless otherwise specified. Animals were maintained in sawdust-lined cages in a temperature and humidity controlled environment at 22±1° C. and 60±5% humidity, respectively. A 12 h light/dark cycle was maintained, with lights on from 6:00 a.m. to 6:00 p.m. They were group-housed with unrestricted access to food and water. All experiments were performed during the light component.
# Reserpine (5.0 mg/kg, sc) was administered 18 h before the injection of drug or vehicle. The rats were placed individually in the chambers for 1 h for acclimatization before administration of the test drugs or vehicle. Immediately after administration of drug or vehicle, animals were individually placed in Opto-Varimex 4 animal activity monitor chamber (Columbus Instruments, Ohio, USA) to start measuring locomotor activity. Locomotion was monitored for 6 h. […] The data were presented as horizontal activity (HACTV). […] The data were analyzed by one-way analysis of variance (ANOVA) followed by Dunnett's post hoc test.
# α-syn = α-syn (Homo sapiens (Human), UniProt P37840); experiment: Thioflavin T assay of α-syn aggregation seeded with 0.5% PFFs; assay type: biochemical; settings: 172.9 μM compound, 30D, 37° C., no agitation
# Procedure: The α-syn assay was carried out by following the procedures developed by us earlier. The compounds (−)-91b (D636) and (−)-95a (D653) were incubated with α-syn seeded with 0.5% PFFs for a period of 30D at 37° C. without agitation. […] Both (−)-91b and (−)-95a lead to a significant decrease in the ThT fluorescence (p<0.0001) when compared to α-syn seeded with 0.5% PFFs alone at 30D (FIG. 5A).
# The experimental conditions were followed as described in our earlier publication. Briefly, α-syn fibrils were formed by incubating purified α-syn at a concentration of 5 mg/mL at 37° C. under constant agitation at 1000 rpm in a Thermomix R shaker (Eppendorf, Hamburg, Germany) for a period of 5 days. These fibrils at a concentration of 0.5% were used to seed the aggregation of α-syn at 1.25 mg/ml (86.45 μM) with or without compounds D636 or D653 at a concentration of 172.9 μM without agitation at 37° C. for a period of 30 days. Samples were collected at 0D and 30D. Thioflavin T (ThT) assay was performed using these samples as described previously to evaluate the extent of aggregation.
# PC12 cells [2] = experiment: MTT neuroprotection against 6-OHDA-induced toxicity; assay type: cell-based, rat; settings: for concentration of greatest protective effect: 24 h pretreatment, then 75 μM 6-OHDA 24 h; for increase in cell survival compared to 6-OHDA treated alone: at concentration of greatest protective effect, 75 μM 6-OHDA
# Procedure: To investigate the neuroprotection property of the selected target molecules (−)-91b, (−)-95a and (−)-95c against 6-OHDA-induced cytotoxicity, we used dopaminergic rat adrenal Pheochromocytoma PC12 cells. As reported above, treatment of PC12 cells with 6-OHDA at 75 μM for 24 h produced ˜50% loss in cells viability and this concentration was used in subsequent experiments. […] However, (−)-95a produced some incremental toxicity starting at 20 μM dose (FIG. 4B). The potential neuroprotective effects of (−)-91b, (−)-95a and (−)-95c against 6-OHDA-induced toxicity were evaluated next. […] At those concentration both drugs increased cell survival by ˜20% compared to 6-OHDA (75 μM) treated alone (FIGS. 4D and 4F), indicating neuroprotective effect of these drugs. […] This could be due to the fact that the compound by itself produced toxicity to the cells at doses ≥20 μM and the presence of 6-OHDA enhanced the toxicity (FIG. 4B).
# PC12 cells (ATCC CRL1721.1, Manassas, Va., USA), a rat adrenal pheochromocytoma cell line, were cultured in T-75 flasks (Greiner Bio One, Frickenhausen, Germany) and maintained in RPMI 1640 medium supplemented with 10% heat inactivated horse serum, 5% fetal bovine serum, 100 U/ml penicillin, and 100 μg/mL streptomycin at 37° C. in 95% air/5% CO2. Stock solutions of (−)-91b, (−)-95a, (−)-95c, and 6-hydroxydopamine (6-OHDA) were prepared in dimethylsulfoxide (DMSO) and aliquots were stored at −20° C. and −80° C., respectively. For all experiments assessing neuroprotective effects of the test compounds, PC12 cells were pretreated with indicated concentrations of (−)-91b, (−)-95a and (−)-95c for 24 h and then treated with 75 μM 6-OHDA for another 24 h. The control cells were treated with above media containing 0.01% DMSO only.
# PC12 cells were plated at 17000 cells/well density in 100 μL of media in 96-well plates and incubated at 37° C. under 5% CO2 atmosphere for 24 h. Cells were treated with varying concentrations of the test compounds to determine their direct effect on cell viability. Neuroprotection experiments were conducted by treating cells for 24 h with varying concentrations of (−)-91b, (−)-95a and (−)-95c. Then the drug containing media was replaced with fresh culture media followed by treatment with 75 μM of 6-OHDA alone for an additional 24 h under the same condition. After incubation for 24 h, 5 mg/mL MTT solution (prepared in Dulbecco's phosphate-buffered saline) was added to the cells (to a final concentration of 0.5 mg/mL) and the plates were further incubated at 37° C. in 95% air/5% CO2 atmosphere for 3-4 h to produce dark-blue formazan crystals. Afterward, the plates were centrifuged at 450 g for 10 min and the supernatants were carefully removed. Formazan crystals were dissolved by adding 100 μL of methanol:DMSO (1:1) mixture to each well and shaking gently at 400 rpm for 30 min at room temperature on a Thermomix R shaker (Eppendorf, Hamburg, Germany). The absorbance was measured on a microplate reader (Biotek Epoch, Winooski, Vt., USA) at 570 nm with background correction performed at 690 nm. Data from at least three experiments were analyzed using GraphPad software (version 6, San Diego, Calif., USA). Cell viability was defined as […] compared to untreated controls.
# cloned rat D3 receptors = cloned rat D3 receptors (Rattus norvegicus (Rat), UniProt P19020); experiment: [3H]spiroperidol competition binding, rat D3 receptors in HEK-293 cells; settings: rat D3 in HEK-293 cells; values of Table 3
# Procedure: A well established radioligand competition assay was carried out to evaluate binding affinity of the test compounds and were compared with that of the reference agent (S)-5-OH-DPAT (Table 3). Binding affinity to rat DA D2 and D3 receptors expressed in HEK-293 cells was determined as described by us previously. […] This indicated highest tolerance of the 4-substituted carbazole derivative for interaction with the D2 and D3 receptors.
# All these procedures were described by us previously.
# PC12 cells [3] = experiment: MTT viability of PC12 cells treated with seeded α-syn aggregates; assay type: cell-based, rat; settings: 30D samples, 24 h treatment, compared to control (seeded α-syn alone 37%)
# Procedure: When PC12 cells were treated with the aggregates formed by 0.5% PFFs seeding at 30D, it was observed that the viability went down to 37% when compared to control. […] The viability values of PC12 cells when treated with α-syn seeded samples in the presence of (−)-91b and (−)-95a were 71% and 72% at 30D when compared to control (FIG. 5B).
# Further, the cytotoxicity of the aggregates formed was evaluated in PC12 cells. Briefly, PC12 cells were treated with α-syn aggregates such that its concentration is 10 μM. 24 h following treatments, viability was measured by MTT assay as described previously.
# human DA D3 receptors = human DA D3 receptors (Homo sapiens (Human), UniProt P35462); experiment: [35S]GTPγS binding stimulation, human D3 receptors in CHO cells; assay type: biochemical; settings: for Emax: compared with maximum stimulation by full agonist DA
# Chain of human DA D3 receptors (P35462 whole entry): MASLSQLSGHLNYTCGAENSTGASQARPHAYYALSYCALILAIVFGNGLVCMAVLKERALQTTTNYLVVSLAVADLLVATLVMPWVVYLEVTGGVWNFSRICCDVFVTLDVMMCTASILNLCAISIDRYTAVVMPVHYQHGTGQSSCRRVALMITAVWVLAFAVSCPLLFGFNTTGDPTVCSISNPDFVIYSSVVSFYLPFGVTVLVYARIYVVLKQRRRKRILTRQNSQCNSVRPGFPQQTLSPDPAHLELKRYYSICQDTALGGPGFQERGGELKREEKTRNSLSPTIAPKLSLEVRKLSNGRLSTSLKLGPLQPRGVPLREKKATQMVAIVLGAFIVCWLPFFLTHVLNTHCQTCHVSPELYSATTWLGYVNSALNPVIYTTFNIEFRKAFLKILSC
# Chain of cloned rat D3 receptors (P19020 whole entry): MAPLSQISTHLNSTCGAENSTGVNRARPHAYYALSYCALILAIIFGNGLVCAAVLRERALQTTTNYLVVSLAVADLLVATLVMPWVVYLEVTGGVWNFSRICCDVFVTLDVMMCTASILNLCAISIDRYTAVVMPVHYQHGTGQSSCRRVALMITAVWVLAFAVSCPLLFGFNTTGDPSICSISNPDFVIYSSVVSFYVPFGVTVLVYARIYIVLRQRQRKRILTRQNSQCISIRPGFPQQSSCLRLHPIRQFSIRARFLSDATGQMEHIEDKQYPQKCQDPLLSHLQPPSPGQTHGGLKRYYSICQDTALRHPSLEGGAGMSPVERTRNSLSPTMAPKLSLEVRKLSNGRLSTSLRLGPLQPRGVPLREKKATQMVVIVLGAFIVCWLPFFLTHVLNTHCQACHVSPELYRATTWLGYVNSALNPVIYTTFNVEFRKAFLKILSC
Compound,duration of locomotor activation [1],reversal of reserpine-induced akinesia / hypolocomotion (horizontal activity) [1],decrease in ThT fluorescence compared to seeded α-syn (α-syn) [fold],concentration of greatest protective effect (PC12 cells [2]) [µM],increase in cell survival compared to 6-OHDA treated alone (PC12 cells [2]) [%],Ki (cloned rat D3 receptors) [nM],viability of PC12 cells treated with α-syn seeded samples formed with compound (PC12 cells [3]) [%],"EC50 (human DA D3 receptors; CHO cells, read-out: EC50 (GTPγS), D3) [nM]",Emax (human DA D3 receptors) [%],EC50 (human DA D3 receptors) [nM]
"CCCN(CCN1CCN(c2ccc3[nH]c4ccccc4c3c2)CC1)[C@H]1CCc2nc(N)sc2C1 [(−)-91b, (S)—N^6-(2-(4-(9H-carbazol-3-yl)piperazin-1-yl)ethyl)-N^6-propyl-4,5,6,7-tetrahydrobenzo[d]thiazole-2,6-diamine]",significant enhancement of locomotion for the duration of the study of 6 h,significantly reversed akinesia; also recorded: significantly different,16,5,~20,3.8,71,0.96,87 to 93,–
"CCCN(CCN1CCN(c2ccc3c(c2)[nH]c2ccccc23)CC1)[C@H]1CCc2c(O)cccc2C1 [Compound (−)-95a, (S)-6-((2-(4-(9H-carbazol-2-yl)piperazin-1-yl)ethyl)(propyl)amino)-5,6,7,8-tetrahydronaphthalen-1-ol]",significant enhancement of locomotion for the duration of the study of 6 h,significantly reversed akinesia; also recorded: highest in vivo activity; also recorded: significantly different,3,10,15,0.4,72,–,85 to 92,0.23
